The text below walks through data of patent US20230097992A1, “BIVALENT EGF FUSION TOXINS” (The Regents of the University of Colorado, a body corporate, priority 2020, published 2023).

The test system of data set [1] is HNSCC Cal27 cells injected intravenously (lung metastases). Nature of the data set: Experimental lung metastasis NSG mouse model. The note with it: for Median survival time: Lung metastasis model, fusion toxin or DT390 50 μg/kg IP, erlotinib 20 mg/kg gavage, once daily for 10 days from day 4. It counts as in vivo, NSG mice. The method, then:
FIG. 8A-C presents data from in vivo efficacy analysis of the human EGF fusion toxins using an experimental lung metastasis NSG mouse model. FIG. 8A presents data from a first animal study for survival curve analysis. NSG mice were IV injected with one million human EGFR^+ HNSCC Cal27 cells on day 0. Mice were injected intraperitoneally (IP) with the EGF fusion toxin or DT390 at 50 μg/kg, once daily for 10 consecutive days starting on day 4 after the tumor cell injection. […] The schedule of the fusion toxin and tumor cell injection is pictured in the schematic below the survival curve. The vertical arrows indicate the days on which the tumor cells or the fusion toxins were injected. *P<0.05; **P<0.01; ***P<0.001; ****P<0.0001. The P-values for the survival curves were calculated using the Mantel-Cox log-rank test (GraphPad Prism9.0).
FIGS. 8B and C present data from a second animal study for a pathology analysis. […] The mice were euthanized on day 10 after tumor cell injection when the first mouse in the DT390 group reached the end point. FIG. 8B presents H&E pictures of lung metastases. Metastases are indicated in the upper panels by black arrowheads. Scale bar: 500 μm. The lower panels are higher magnification pictures of the area in black rectangles in the upper panels. […] Error bars indicate standard deviation (SD).
(§1) HNSCC tumor cells were injected via the following routes: 1) Flank-xenograft solid tumor model: eight million human HNSCC Cal27 tumor cells were subcutaneously injected into the right flank at day 0. The tumor-bearing mice were randomly divided into the four experimental groups when the tumors were palpable at day 3. The tumor volume was measured using digital vernier calipers every 3 days and calculated according to the formula: volume (mm^3)=(length×width×width)/2. 2) Tongue-orthotopic solid tumor model: eight million human HNSCC Cal27 tumor cells in 50 μl DMEM were injected into the tongue at day 0 following isoflurane anesthesia and the tumor-bearing mice were randomly divided into the planned four experimental groups at day 3. 3) Experimental metastasis model: one million human HNSCC Cal27 tumor cells in 200 μl DMEM were intravenously injected at day 0 via tail vein and the tumor-bearing mice were randomly divided into the four experimental groups at day 3.
(§2) Mono-EGF-IT (mEGF-IT), bEGF-IT, or DT390 was intraperitoneally injected (IP) starting at day 4 at 50 μg/kg, once daily for 10 consecutive days. […] The injected animals were observed daily for signs and symptoms of illness and scored at least twice weekly based on the parameters as previously reported (Peraino et al. (2013), J. Immunol. Methods 398-399, 33-43, which is hereby incorporated by reference in its entirety; Wang et al., 2015). The animals were humanely euthanized when the score exceeded the limit or the animal lost more than 15% of its pre-injection body weight. In addition, to assess whether the fusion toxins are toxic to the animals, NSG mice injected with the fusion toxins only were also included as control.
The third in vivo efficacy model was an experimental metastasis model. One million of HNSCC Cal27 tumor cells were intravenously injected via the tail vein of NSG mice at day 0. The EGF fusion toxins were injected intraperitoneally (IP) starting on day 4 at 50 μg/kg daily for 10 consecutive days. […] To further assess the effects of the fusion toxins on metastasis, the experimental metastasis study was repeated with a second cohort of NSG mice, and all mice were euthanized 10 days after tumor cell inoculation, when the first mouse in the DT390 group reached the end point. The data are depicted in FIGS. 8B and C.

Data set [2] relates to HNSCC Cal27 subcutaneous xenografts. Nature of the data set: Flank-xenograft solid tumor-bearing NSG mouse model. It counts as in vivo, NSG mice. Particulars: Subcutaneous xenograft model; fusion toxin or DT390 50 μg/kg IP, erlotinib 20 mg/kg gavage, once daily for 10 days from day 4.
Excerpt: FIGS. 6A-6D presents the data from in vivo efficacy analysis of the human EGF fusion toxins against subcutaneous xenografts in NSG mice from two animal studies. FIG. 6A depicts the survival curve for NSG mice injected with Cal27 cells. […] FIGS. 6B-D depict tumor volume and weight data from the second study performed with a second cohort of NSG mice. […] Mice were euthanized on day 14 after tumor cell injection, when the first mouse in the DT390 group reached the end point. FIG. 6B: Tumor volumes were measured periodically, and the growth kinetics of the four groups were plotted. FIG. 6B depicts the tumor growth kinetics for a period of 14 days. FIG. 6C presents a bar graph representing the tumor weights at day 14. FIG. 6D depicts images of harvested tumors on day 14. Scale bar: 1 cm. FIGS. 6A-6C: *P<0.05; **P<0.01; ***P<0.001; ****P<0.0001; ns: not significant. The P-values for the survival curves in FIG. 6A were calculated using the Mantel-Cox log-rank test and that for the comparisons in FIGS. 6B and C were calculated using the two-tailed Student t-test (GraphPad Prism 9.0.0).
as §1, §2
In vivo efficacy of the mEGF-IT and bEGF-IT against HNSCC was assessed using three immunodeficient tumor-bearing NSG mouse models. The first in vivo efficacy model was a flank-xenograft solid tumor-bearing NSG mouse model. Eight million Cal27 tumor cells were injected subcutaneously (SQ) into the right flank at day 0. The EGF fusion toxins were injected intraperitoneally (IP) starting on day 4 at 50 μg/kg daily for 10 consecutive days. […] The reduction of the tumor volumes, weights and sizes (FIGS. 6B-6D) were all consistent with the median survival prolongation.

The test system of data set [3] is HNSCC Cal27 tongue-orthotopic tumors. As to the kind of experiment: Tongue-orthotopic tumor-bearing NSG mouse model. Format: in vivo, NSG mice. The note with it: Tongue orthotopic model; fusion toxin or DT390 50 μg/kg IP, erlotinib 20 mg/kg gavage, once daily for 10 days from day 4. The method, then: FIGS. 7A-7C presents the data from two animal studies of in vivo efficacy analysis of the human EGF fusion toxins against tongue squamous cell carcinomas (SCCs) in NSG mice. FIG. 7A presents the data from in vivo efficacy analysis of the human EGF fusion toxins using human EGFR-positive HNSCC Cal27 tongue-orthotopic tumor-bearing NSG mouse model. Eight million human EGFR-positive HNSCC Cal27 cells were injected into the tongue on day 0. Mice were injected intraperitoneally (IP) with the EGF fusion toxin or DT390 at 50 μg/kg, starting on day 4, once daily for 10 consecutive days. […] The schedule of the fusion toxin and tumor cell injection is pictured in the schematic below the survival curve. The vertical arrows indicate the days on which the tumor cells or the fusion toxins were injected. *P<0.05; **P<0.01; ***P<0.001; ****P<0.0001; ns: not significant.
FIG. 7B presents the data from a further in vivo efficacy analysis of the human EGF fusion toxins. […] The mice were euthanized on day 8 after tumor cell injection when the first mouse in the DT390 group reached the end point. The photograph depicts tongue squamous cell carcinomas (SCCs) (circled by the black dotted lines). Scale bar: 1 cm. FIG. 7C presents the FIG. 7B tumor volume comparison of the treatment groups. *P<0.05; **P<0.01
as §1, §2
To assess the in vivo efficacy of the human EGF fusion toxins to the xenograft tumors in the head and neck area, a tongue-orthotopic tumor-bearing NSG mouse model was used as a second efficacy model. Eight million HNSCC Cal27 cells were injected into the tongue at day 0. The EGF fusion toxins were injected intraperitoneally (IP) starting on day 4 at 50 μg/kg daily for 10 consecutive days. Since the resulting tongue-orthotopic tumors severely affected the animal's eating and drinking, animals were euthanized earlier. Therefore, the median survival prolongation was not as impressive as that observed in the flank-xenograft solid tumor-bearing NSG mouse model. […] To further characterize the effect of the EGF fusion toxins on tumor volume, the orthotopic tongue SCC model study was repeated, and the mice were euthanized 8 days after tumor cell inoculation.

The test system of another data set is NSG mice. As to the kind of experiment: In vivo off-target toxicity in NSG mice.
Excerpt: FIGS. 12A-C presents representative images of necropsy results for NSG mice treated with mono-EGF-IT or bi-EGF-IT without tumor cell injection. Mice were euthanized on day 13 after the first injection of the fusion toxins. The images show representative gross changes observed in the ear (FIG. 12A), liver (FIG. 12C) and gastrointestinal tract of a representative NSG mouse treated with mono-EGF-IT compared to a representative NSG mouse treated with bi-EGF-IT.
as §2
The main side effects of targeting EGFR are caused by off-target effects, because EGFR is expressed in many healthy tissues, include skin, liver, and gastrointestinal tract (Widakowich et al., (2007), Oncologist, 12, 1443-1455). […] To further assess these toxic effects, another in vivo toxicity study in non-tumor-bearing mice was performed. NSG mice were treated with mono-EGF-IT or bi-EGF-IT, without tumor cell injection.

For data set [4], the system named is 14 EGFR+ HNSCC cells lines. As to the kind of experiment: Flow cytometry binding, all 14 EGFR+ HNSCC cell lines together. Also noted: species or system human. Particulars: mean over the 14 EGFR+ HNSCC cell lines.
Where [5] appears, read: non-tumor-bearing NSG mice, 13 days after the first injection.

Values joined by “and” are separate entries in the source; they are usually repeats but may differ in a detail not shown here. Identical values can stand only once.

In the case of DT390, the Median survival time in data set [1] was 8.5 days; in data set [2] it was 14 days and 13 days; in data set [3], 10 days.
Turning to “Mono-EGF IT: DT390 joined by G4S to one human EGF domain, C-terminal 6×His tag; SEQ ID NO: 15”, the Median survival time in data set [1] was determined as 32 days; in data set [2] it was 14 days; in data set [3] it was 11 days. Moreover, the “number of metastases in the lungs” value in data set [1] (second cohort, euthanized 10 days after tumor cell inoculation) was “reduced compared with the DT390-negative control group”. Moreover, the “adverse effects observed in treated mice” value with NSG mice (mice of the efficacy studies) is “generally unhealthy and lethargic and developed skin rashes”. For the same substance, in the data set on NSG mice (non-tumor-bearing NSG mice), the “general condition and skin” value is “generally unhealthy and lethargic with skin rashes”. The “necropsy, gastrointestinal tract” value in the data set with NSG mice (setting [5]) is reported as “mildly pale with scant ingesta in the stomach or cecum”. Also, in the data set with NSG mice (setting [5]), the “necropsy, liver” value was “diffuse pale livers with moderate reticular patterns”. The affinity in data set [4], expressed as Kd, was 12.2 nM.
